Data published in publication PMC10501326, “A Phase I Study of the Pan-Notch Inhibitor CB-103 for Patients with Advanced Adenoid Cystic Carcinoma and Other Tumors” (Cancer Research Communications, 2023).
Values joined by “and” are separate entries in the source; they are usually repeats but may differ in a detail not shown here. Identical values can stand only once.

Experiment: Phase I/II safety and tolerability: DLTs and treatment-related adverse events (CTCAE v4.03)
Type: in vivo
Source text: The study was an open-label, nonrandomized, phase I/II dose-escalation study with planned expansion cohorts. […] Part B was a potential expansion phase at the MTD/RP2D to determine preliminary evidence of antitumor activity and to confirm safety among patients stratified by preselected cancer indications.
Part A was based on a two-parameter Bayesian logistic regression model (BLRM) to investigate safety and tolerability of sequentially enrolled dose cohorts of 3–6 patients. The first 2 participants of each cohort were enrolled in a staggered approach with at least 1 day apart between first dosing.
12-lead electrocardiograms and Holter safety monitoring with periodic cardiac imaging was employed. Efficacy assessments used RECIST v1.1 applied to CT/MRI scans performed at screening and every 8 weeks; or evaluated complete remission with complete hematologic recovery by National Comprehensive Cancer Network guideline criteria for T-ALL/T-LBL. Adherence to study drug administration was evaluated using both patient diaries and capsule counts.
Secondary endpoints included assessment of clinical benefit rate [CBR; defined as achieving complete and/or partial response and/or stable disease (SD) at prespecified benchmarks], duration of response, progression-free survival (PFS) and overall survival (OS), and plasma pharmacokinetics.
The SS was the primary population for all safety and efficacy analyses, except for determination of dose-DLT relationship.
Under this model, and accounting for dropouts and some additional patients enrolled to each cohort, approximately 55 patients were anticipated to enroll in dose escalation and approximately 45 patients in the confirmatory phase. […] All statistical analyses were analyzed using SAS v9.4 software.

[1] = N = 79, per-patient, CTCAE v4.03

Structure (SMILES): CC(C)(C)c1ccc(Oc2ccc(N)cn2)cc1 [CB-103]
- Number of DLTs observed (12 dose-escalation cohorts (n = 64)): Two
- Recommended phase II dose (RP2D) (5 days on, 2 days off weekly): 500 mg twice daily
- N DLT (CH8 522 mg QD, N=4): 1
- N DLT (CH11 400 mg BID, 5/2, N=6): 1
- Grade 4 TRAE elevated lipase (N = 79): ^aThe two TRAEs classified as grade 4 were elevated lipase (one event) and elevated liver function tests (one event).
- Grade 4 TRAE elevated liver function tests (N = 79): ^aThe two TRAEs classified as grade 4 were elevated lipase (one event) and elevated liver function tests (one event).
- TRAE Anemia, any grade [1]: 13 (16) N (%)
- TRAE Anemia, grade 1–2 [1]: 9 (11) N (%)
- TRAE Anemia, grade 3 [1]: 4 (5) N (%)
- TRAE Any AE, any grade [1]: 60 (76) N (%)
- TRAE Any AE, grade 1–2 [1]: 47 (60) N (%)
- TRAE Any AE, grade 3 [1]: 13 (16) N (%)
- TRAE Any AE, grade 4 [1]: 2 (3) N (%)
- TRAE Blood and lymphatic system disorders, any grade [1]: 13 (17) N (%)
- TRAE Blood and lymphatic system disorders, grade 1–2 [1]: 9 (11) N (%)
- TRAE Blood and lymphatic system disorders, grade 3 [1]: 4 (5) N (%)
- TRAE Diarrhea, any grade [1]: 10 (13) N (%)
- TRAE Diarrhea, grade 1–2 [1]: 10 (13) N (%)
- TRAE Dyschromatopsia, any grade [1]: 15 (19) N (%)
- TRAE Dyschromatopsia, grade 1–2 [1]: 15 (19) N (%)
- TRAE Dyspepsia, any grade [1]: 10 (13) N (%)
- TRAE Dyspepsia, grade 1–2 [1]: 10 (13) N (%)
- TRAE Eye disorders, any grade [1]: 37 (47) N (%)
- TRAE Eye disorders, grade 1–2 [1]: 36 (46) N (%)
- TRAE Eye disorders, grade 3 [1]: 1 (1) N (%)
- TRAE Fatigue, any grade [1]: 9 (11) N (%)
- TRAE Fatigue, grade 1–2 [1]: 9 (11) N (%)
- TRAE Gastrointestinal disorders, any grade [1]: 39 (49) N (%)
- TRAE Gastrointestinal disorders, grade 1–2 [1]: 38 (48) N (%)
- TRAE Gastrointestinal disorders, grade 3 [1]: 1 (1) N (%)
- TRAE General disorders and administration site conditions, grade 1–2 [1]: 9 (11) N (%)
- TRAE General disorders and administration site conditions, grade 3 [1]: 1 (1) N (%)
- TRAE Laboratory investigations, any grade [1]: 13 (16) N (%)
- TRAE Laboratory investigations, grade 1–2 [1]: 8 (10) N (%)
- TRAE Laboratory investigations, grade 3 [1]: 5 (6) N (%)
- TRAE Nausea, any grade [1]: 17 (22) N (%)
- TRAE Nausea, grade 1–2 [1]: 17 (22) N (%)
- TRAE Skin and subcutaneous tissue disorders, any grade [1]: 8 (10) N (%)
- TRAE Skin and subcutaneous tissue disorders, grade 1–2 [1]: 6 (8) N (%)
- TRAE Skin and subcutaneous tissue disorders, grade 3 [1]: 2 (3) N (%)
- TRAE Vision blurred, any grade [1]: 12 (15) N (%)
- TRAE Vision blurred, grade 1–2 [1]: 12 (15) N (%)
- TRAE Visual impairment, any grade [1]: 8 (10) N (%)
- TRAE Visual impairment, grade 1–2 [1]: 7 (9) N (%)
- TRAE Visual impairment, grade 3 [1]: 1 (1) N (%)
- TRAE Vomiting, any grade [1]: 9 (11) N (%)
- TRAE Vomiting, grade 1–2 [1]: 8 (10) N (%)
- TRAE Vomiting, grade 3 [1]: 1 (1) N (%)
- Grade 3 or 4 TRAEs, number reported (SS population (n = 79)): 26
- Patients who interrupted or required dose adjustment (all patients): 32 patients (%)
- DLT: patients with asymptomatic grade 3 elevation in gamma-glutamyl transferase leading to drug discontinuation (cohort 8 (552 mg daily dose)): 1 patient
- DLT observed in cohort 11 (cohort 11 (400 mg twice daily, 5 days on and 2 off each week), dose interruption, continued at reduced dose): grade 3 visual impairment
- MTD (dose escalation up to 500 mg twice daily 5/2): not reached
- Resumed at the dose prior to interruption (in vivo): 81 % of the time
- Deaths related to study treatment (n = 79): no drug-related deaths
- Grade 3–4 TRAE anemia (n = 79): 7 events
- Grade 3–4 TRAE elevated liver function tests (n = 79): 5 events
- Grade 3–4 TRAE elevated serum amylase or lipase (n = 79): 3 events
- Patients with grade 3–4 TRAEs (n = 79): 15 patients (%) and 15 (19%) patients (%)
- Median duration of interruption for TRAEs (range: 1–14): 5 days
